Results published in patent publication US20240294478A1, “ANTI-CANCER COMPOUNDS AND METHODS OF USE” (YALE UNIVERSITY, priority 2021, published 2024).
Where two headings read alike, the source gives them in different places.

Legend:
LN229 MGMT−/MMR− cells = experiment: Short-term cell viability assay, LN229 MGMT-/MMR- (shRNA targeting MSH2); type: cell-based, human; settings: for IC50: Homo sapiens, read-out: IC50 against LN229 cell lines, MGMT− MMR−
Description: (§1) LN229 MGMT- and MGMT+ cell lines were a gift from B. Kaina (Johannes Gutenberg University Mainz, Mainz, Germany) and grown in Gibco® Duilbecco's Modified Eagle Medium with 10% fetal bovine serum (DMEM). For each compound tested, the relationship between MGMT status and MMR status and compound activity, in terms of IC50 values ([…]), was determined by the following method. On day 1, LN229 isogenic cells of varying MGMT and MMR status were seeded in 96 well format at a density of 2000 cells/well in 100 μL of DMEM media and allowed to adhere overnight. On day 2, a drug master plate was made with 100×the desired maximal concentration of test compound and serially diluted by 2 until 100×the minimal desired concentration, with one DMSO control. Then daughter plates were created with varied concentrations from 3-times the minimal concentration to 3-times the maximal desired concentration. Afterwards, 50 μL of daughter drug plate was added to 100 μL of the seeded cells for a final concentration of 1×in triplicate. Cells were allowed to grow for 6 days. On day 7, the cells were fixed, and stained with Hoechst nuclear dye and imaged to determine growth inhibition.
For each compound tested, the relationship between MGMT status and MMR status and compound activity, in terms of IC50 values (in μM), was determined. In addition, for each compound, the therapeutic index (TI) was calculated, according to the equation MGMT TI=IC50 (MGMT+/MMR+) divided by IC50 (MGMT−/MMR+). […] MMR RI (resistance index)=IC50 (MGMT−/MMR−) divided by IC50 (MGMT−/MMR+).
(§2) Short-term Cell Viability Assay. Cells were seeded in 96-well plates at 1000 or 2000 cells/well and allowed to adhere at 23° C. for 60 min and then incubated overnight at 37° C. […] Cells were imaged on a Cytation 3 imaging reader (BioTek) and quantified using CellProfiler software. For in vitro short-term growth delay experiments, IC50 values were determined from the nonlinear regression equation, [inhibitor] vs normalized response with variable slope.

LN229 MGMT−/MMR+ cells = experiment: Short-term cell viability assay, LN229 MGMT-/MMR+; type: cell-based, human; settings: for IC50: Homo sapiens, read-out: IC50 against LN229 cell lines, MGMT− MMR+
Description: as §1
(§3) For each compound tested, the relationship between MGMT status and MMR status and compound activity, in terms of IC50 values (in μM), was determined. In addition, for each compound, the therapeutic index (TI) was calculated, according to the equation MGMT TI=IC50 (MGMT+/MMR+) divided by IC50 (MGMT−/MMR+). The T1 indicates the efficacy of a compound in treating the targeted MGMT-cancer cells as compared to potential for the same compound to damage, or have adverse effects against, normal cells which are MGMT+cells, The higher the value of the TI, the safer the compound is. […] MMR RI (resistance index)=IC50 (MGMT−/MMR−) divided by IC50 (MGMT−/MMR+). The higher the value of the RI, the less likely that resistance to the compound will develop.
(§4) Short-term Cell Viability Assay. Cells were seeded in 96-well plates at 1000 or 2000 cells/well and allowed to adhere at 23° C. for 60 min and then incubated overnight at 37° C. Cells were treated with indicated concentrations of compounds in triplicate for 4-6 days prior to fixation with 3.7% paraformaldehyde and nuclear staining with 1 μg/mL Hoechst 33342 dye. Cells were imaged on a Cytation 3 imaging reader (BioTek) and quantified using CellProfiler software. For in vitro short-term growth delay experiments, IC50 values were determined from the nonlinear regression equation, [inhibitor] vs normalized response with variable slope.

LN229 MGMT+/MMR− cells = experiment: Short-term cell viability assay, LN229 MGMT+/MMR- (shRNA targeting MSH2); type: cell-based; settings: Homo sapiens
Description: as §1, §3, §4

LN229 MGMT+/MMR+ cells = experiment: Short-term cell viability assay, LN229 MGMT+/MMR+; type: cell-based; settings: Homo sapiens, read-out: IC50 against LN229 cell lines, MGMT+ MMR+
Description: as §1, §3, §4

[1] = tested on: PD20 cells, deficient in FANCD2 (FANCD2−/−) or complemented with FANCD2; experiment: Short-term viability assay, PD20 cells; type: cell-based, human; settings: PD20 FANCD2−/− vs +FANCD2
Description: FIGS. 8A-8K. (FIG. 8A) Change in percent cells with 1 micronuclei from baseline (DMSO control) after treatment as in FIGS. 5A and 5C. […] (FIG. 8B) Short-term viability assay curves for KL-50 in PD20 cells, deficient in FANCD2 (FANCD2−/−) or complemented with FANCD2 (+FANCD2). (FIG. 8C) Short-term viability assay curves for KL-50 in PEO4 (BRCA2+) and PEO1 (BRCA2−/−) cells pre-treated with 0.01% DMSO control or 10 μM O^6BG (+O^6BG) for 1 h prior to KL-50 addition. (FIG. 8D) Short-term viability assay curves for KL-50 in DLD1 BRCA2+/− and BRCA2−/−cells pre-treated with 0.01% DMSO control or 10 μM O^6BG (+O^6BG) for 1 h prior to KL-50 addition. For FIGS. 8B-8D, points, mean; error bars, SD; n=3 technical replicates. […] Change in percent cells with 1 micronuclei from baseline (DMSO control) after treatment with olaparib (10 μM) for 48 h in LN229 MGMT+/−, MMR+/−cells. […] Western blot analysis of FANCD2 ubiquitination in LN229 MGMT+/−, MMR+/−cells and PD20 FANCD2-deficient cells, complemented with empty vector (FANCD2+EV), wildtype FANCD2 (PD20+FD2) or ubiquitination-mutant FANCD2 (PD20+KR). The % FANCD2 ubiquitination (% FANCD2 Ub) is quantified as the background-corrected integrated band intensity of the upper band divided by the sum of the background-corrected integrated band intensities of the upper and lower bands. The fold change in % FANCD2 ubiquitination is presented for each cell line relative to DMSO-treated cells. Vinculin serves as loading control. For 8J-8K, points, mean; error bars, SD; n=3 technical replicates.
as §2

MGMT−/MMR− cells = experiment: IR alkaline comet assay, LN229 MGMT-/MMR-, time course; type: cell-based, human; settings: time points 2-24 h
Description: The IR alkaline comet assay, adapted for ICL detection was performed to determine if ICLs were formed in MGMT-cells treated with KL-50. In this assay, cells were sequentially exposed to genotoxins and ionizing radiation, and then analyzed by single cell alkaline gel electrophoresis. Attenuation of the IR-induced comet tail is indicative of ICL formation.
IR Alkaline Comet Assay. This assay was performed utilizing the CometAssay™ Kit (Trevigen) according to the alkaline assay protocol, with the addition of slide irradiation post-lysis. Cells were trypsinized, washed with 1×PBS, added to melted Comet LMAgarose (Trevigen), and spread on Trevigen CometSlides at a density of 1000 cells per sample in 50 μL. Lysis solution (Trevigen) with 10% DMSO was added overnight at 4° C. Slides were removed from lysis buffer and irradiated to 0 or 10 Gy using an XRAD 320 X-Ray System (Precision X-Ray) at 320 kV, 12.5 mA, and 50.0 cm SSD, with a 2 mm Al filter and 20 cm×20 cm collimator. Slides were then placed in alkaline buffer (200 mM NaOH, 1 mM EDTA) for 45 min, followed by electrophoresis in 850 mL alkaline buffer for 45 min at 4° C. Slides were washed and stained with SYBR gold (Invitrogen) per Trevigen assay protocol. Slides were imaged on a Cytation 3 imaging reader (BioTek), and comets were analyzed using CometScore 2.0 software (TriTek).

[2] = LN-229, 144 h, Table 1, 6 days growth

**Q.** What does the source list for `NC(=O)c1nc[nH]c1/N=N/N(CCF)C(=O)OCc1ccccc1` [Compound E4]?
**A.** IC50 (LN229 MGMT−/MMR− cells; [2]): 17 ± 1 µM; IC50 (LN229 MGMT−/MMR+ cells; [2]): 8 ± 1 µM; IC50 (LN229 MGMT+/MMR− cells; LN-229, 144 h, Table 1, 6 days growth, read-out: IC50 against LN229 cell lines, MGMT+ MMR−): 11 ± 1 µM; IC50 (LN229 MGMT+/MMR+ cells; LN-229, 144 h, Table 1, 6 days growth, Hoechst nuclear count): 14 ± 1 µM

**Q.** Which IC50 (LN229 MGMT−/MMR− cells; LN-229, 144 h) does the source give for `CN(CCF)/N=N/c1nc[nH]c1C(N)=O` [Compound E5, 4-[(1E)-3-(2-fluoroethyl)-3-methyltriaz-1-en-1-yl]-1H-imidazole-5-carboxamide] here?
**A.** > 100 µM

**Q.** What about the IC50 (LN229 MGMT−/MMR+ cells; LN-229, 144 h) of the same compound?
**A.** 14.2 ± 1 µM

**Q.** And the IC50 (LN229 MGMT+/MMR− cells; LN-229, 144 h, read-out: IC50 against LN229 cell lines, MGMT+ MMR−)?
**A.** > 100 µM

**Q.** What about the IC50 (LN229 MGMT+/MMR+ cells; LN-229, 144 h) of the same compound?
**A.** > 199 µM

**Q.** For `CO[C@@]12[C@H](COC(N)=O)C3=C(C(=O)C(C)=C(N)C3=O)N1C[C@@H]1N[C@@H]12` [MMC, Mitomycin C], which “sensitivity of FANCD2-deficient cells” value [1] is on record?
**A.** hypersensitivity to crosslinking agents in FANCD2−/−cells

**Q.** `NC(=O)c1ncn2c(=O)n(CCCl)nnc12` [MTZ, 3-(2-chloroethyl)-4-oxoimidazo[5,1-d][1,2,3,5]tetrazine-8-carboxamide, reference compound] was tested. Which IC50 (LN229 MGMT−/MMR− cells; LN-229, Table II) did it give?
**A.** 6.9 ± 0.7 µM

**Q.** What about the “activity in MGMT−/MMR− cells, in words” value (LN229 MGMT−/MMR− cells; LN229 MGMT−/MMR−) of the same compound?
**A.** effective against MGMT−/MMR− cells

**Q.** What about the “MGMT− RI (resistance index)” value (LN229 MGMT−/MMR− cells; Table II, IC50 (MGMT−/MMR−) divided by IC50 (MGMT−/MMR+)) of the same compound?
**A.** 0.8

**Q.** And the IC50 (LN229 MGMT−/MMR+ cells; LN-229, Table II)?
**A.** 9 ± 0.4 µM

**Q.** And the “TI / RI, in words” value (LN229 MGMT−/MMR+ cells; LN229 isogenic lines)?
**A.** poor TI

**Q.** What about the “MGMT− TI (therapeutic index)” value (LN229 MGMT−/MMR+ cells; Table II, IC50 (MGMT+/MMR+) divided by IC50 (MGMT−/MMR+)) of the same compound?
**A.** 6.9

**Q.** What about the IC50 (LN229 MGMT+/MMR− cells; LN-229, Table II, read-out: IC50 against LN229 cell lines, MGMT MMR−) of the same compound?
**A.** 50.8 ± 4.2 µM

**Q.** What about the IC50 (LN229 MGMT+/MMR+ cells; LN-229, Table II) of the same compound?
**A.** 61.9 ± 4.7 µM

**Q.** What about the “DNA damage in unirradiated samples” value (MGMT−/MMR− cells) of the same compound?
**A.** maximal damage at 2 h

**Q.** And the “DNA mobility after IR, rate of ICL formation” value (MGMT−/MMR− cells)?
**A.** reduced DNA mobility within 2 h
